Assay results reported in patent US11026427B2, “Microbiocidal oxadiazole derivatives” (SYNGENTA PARTICIPATIONS AG, priority 2016, dated 2021).

How the values were obtained:
[1] = tested on: Phakopsora pachyrhizi; assay: Phakopsora pachyrhizi / soybean / leaf disc preventative (Asian soybean rust); format: in vivo; settings: foliar, 200 ppm in the applied formulation, compared to untreated control, read-out: disease control
Procedure: (§1) Leaf disks or leaf segments of various plant species are cut from plants grown in a greenhouse. The cut leaf disks or segments are placed in multiwell plates (24-well format) onto water agar. The leaf disks are sprayed with a test solution before (preventative) or after (curative) inoculation. Compounds to be tested are prepared as DMSO solutions (max. 10 mg/ml) which are diluted to the appropriate concentration with 0.025% Tween20 just before spraying. The inoculated leaf disks or segments are incubated under defined conditions (temperature, relative humidity, light, etc.) according to the respective test system. A single evaluation of disease level is carried out 3 to 14 days after inoculation, depending on the pathosystem. Percent disease control relative to the untreated check leaf disks or segments is then calculated.
Soybean leaf disks are placed on water agar in multiwell plates (24-well format) and sprayed with the formulated test compound diluted in water. One day after application leaf discs are inoculated by spraying a spore suspension on the lower leaf surface. After an incubation period in a climate cabinet of 24-36 hours in darkness at 20° C. and 75% rh leaf disc are kept at 20° C. with 12 h light/day and 75% rh. The activity of a compound is assessed as percent disease control compared to untreated when an appropriate level of disease damage appears in untreated check leaf disks (12 to 14 days after application).
(§2) The following compounds at 200 ppm in the applied formulation give at least 80% disease control in this test when compared to untreated control leaf disks under the same conditions, which show extensive disease development.

[2] = tested on: Uromyces viciae-fabae; assay: Uromyces viciae-fabae / field bean / leaf disc preventative (faba-bean rust); format: in vivo; settings: foliar, 288 h, 100 ppm in the applied formulation, compared to untreated control, read-out: disease control
Procedure: as §1
Field bean leaf discs are placed on water agar in multiwell plates (96-well format) and 10 μl of the formulated test compound diluted in acetone and a spreader pipetted onto the leaf disc. Two hours after application leaf discs are inoculated by spraying a spore suspension on the lower leaf surface. The leaf discs are incubated in a climate cabinet at 22° C. with 18 hour day and 70% relative humidity. The activity of a compound is assessed as percent disease control compared to untreated when an appropriate level of disease damage appears in untreated check leaf disks (12 days after application).
The following compounds at 100 ppm in the applied formulation give at least 80% disease control in this test when compared to untreated control leaf discs under the same conditions, which show extensive disease development.

[3] = tested on: Glomerella lacenarium (Colletotrichum lacenarium); assay: Glomerella lacenarium (Colletotrichum lacenarium) liquid culture / cucumber / preventative (anthracnose); format: cell-based; settings: 20 ppm in the applied formulation, growth inhibition measured photometrically, compared to untreated control, read-out: disease control
Procedure: Mycelia fragments or conidia suspensions of a fungus prepared either freshly from liquid cultures of the fungus or from cryogenic storage, are directly mixed into nutrient broth. DMSO solutions of the test compound (max. 10 mg/ml) are diluted with 0.025% Tween20 by a factor of 50 and 10 μl of this solution is pipetted into a microtiter plate (96-well format). The nutrient broth containing the fungal spores/mycelia fragments is then added to give an end concentration of the tested compound. The test plates are incubated in the dark at 24° C. and 96% relative humidity. The inhibition of fungal growth is determined photometrically after 2 to 7 days, depending on the pathosystem, and percent antifungal activity relative to the untreated check is calculated.
Conidia of the fungus from cryogenic storage are directly mixed into nutrient broth (PDB—potato dextrose broth). After placing a (DMSO) solution of test compound into a microtiter plate (96-well format), the nutrient broth containing the fungal spores is added. The test plates are incubated at 24° C. and the inhibition of growth is measured photometrically 3 to 4 days after application.
The following compounds at 20 ppm in the applied formulation give at least 80% disease control in this test when compared to untreated control under the same conditions, which show extensive disease development.

[4] = tested on: Puccinia recondita f. Sp. tritici; assay: Puccinia recondita f. sp. tritici / wheat / leaf disc preventative (brown rust); format: in vivo; settings: foliar, 200 ppm in the applied formulation, compared to untreated control, read-out: disease control
Procedure: as §1, with “calculated. Wheat leaf segments cv. Kanzler were placed on agar in multiwell plates (24-well format) and sprayed with the formulated test compound diluted in water. The leaf disks were inoculated with a spore suspension of the fungus 1 day after application. The inoculated leaf segments were incubated at 19° C. and 75% relative humidity (rh) under a light regime of 12 hours light/12 hours darkness in a climate cabinet and the activity of a compound was assessed as percent disease control compared to untreated when an appropriate level of disease damage appears in untreated check leaf segments (7 to 9 days after application). The following compounds at 200 ppm in the applied formulation give at least 80% disease control in this test when compared to untreated control leaf disks under the same conditions, which show extensive disease development.” for “calculated.”

[5] = tested on: Puccinia recondita f. Sp. tritici; assay: Puccinia recondita f. sp. tritici / wheat / leaf disc curative (brown rust); format: in vivo; settings: foliar, 200 ppm in the applied formulation, compared to untreated control, read-out: disease control
Procedure: as §1
Wheat leaf segments cv. Kanzler are placed on agar in multiwell plates (24-well format). The leaf segments are then inoculated with a spore suspension of the fungus. Plates were stored in darkness at 19° C. and 75% relative humidity. The formulated test compound diluted in water was applied 1 day after inoculation. The leaf segments were incubated at 19° C. and 75% relative humidity under a light regime of 12 hours light/12 hours darkness in a climate cabinet and the activity of a compound was assessed as percent disease control compared to untreated when an appropriate level of disease damage appears in untreated check leaf segments (6 to 8 days after application).
as §2

| melting point [°C] | SMILES | pest or weed control at 200 ppm [1] [%] | pest or weed control at 100 ppm [2] [%] | inhibition of growth at 20 ppm [3] [%] | pest or weed control at 200 ppm [4] [%] | pest or weed control at 200 ppm [5] [%] |
| --- | --- | --- | --- | --- | --- | --- |
| 125 to 135 | O=C(c1ccc(F)cc1)c1ccc(-c2noc(C(F)(F)F)n2)cc1 [Compound 1.1, (4-fluorophenyl)-[4-[5-(trifluoromethyl)-1,2,4-oxadiazol-3-yl]phenyl]methanone] | ≥ 80 | ≥ 80 |  |  |  |
| 105 to 115 | CC(=O)c1ccc(-c2noc(C(F)(F)F)n2)cc1 [Compound 1.2, 1-[4-[5-(trifluoromethyl)-1,2,4-oxadiazol-3-yl]phenyl]ethanone] |  | ≥ 80 |  |  |  |
| 110 to 115 | O=C(c1ccccc1)c1ccc(-c2noc(C(F)(F)F)n2)cc1 [Compound 1.3, phenyl-[4-[5-(trifluoromethyl)-1,2,4-oxadiazol-3-yl]phenyl]methanone] | ≥ 80 | ≥ 80 | ≥ 80 |  |  |
|  | CC(C)(C)C(=O)c1ccc(-c2noc(C(F)(F)F)n2)cc1 [Compound 1.4, 2,2-dimethyl-1-[4-[5-(trifluoromethyl)-1,2,4-oxadiazol-3-yl]phenyl]propan-1-one] |  | ≥ 80 |  |  |  |
| 104 to 107 | O=C(c1ccc(OC(F)(F)F)cc1)c1ccc(-c2noc(C(F)(F)F)n2)cc1 [Compound 1.6, [4-(trifluoromethoxy)phenyl]-[4-[5-(trifluoromethyl)-1,2,4-oxadiazol-3-yl]phenyl]methanone] |  | ≥ 80 |  |  |  |
| 84 to 87 | CC#CC(=O)c1ccc(-c2noc(C(F)(F)F)n2)cc1 [Compound 1.7, 1-[4-[5-(trifluoromethyl)-1,2,4-oxadiazol-3-yl]phenyl]but-2-yn-1-one] |  | ≥ 80 | ≥ 80 | ≥ 80 |  |
| 65 to 69 | C=CCC(=O)c1ccc(-c2noc(C(F)(F)F)n2)cc1 [Compound 1.8, 1-[4-[5-(trifluoromethyl)-1,2,4-oxadiazol-3-yl]phenyl]but-3-en-1-one] |  | ≥ 80 | ≥ 80 |  |  |
| 58 to 62 | O=C(c1ccc(-c2noc(C(F)(F)F)n2)cc1)C1CC1 [Compound 1.9, cyclopropyl-[4-[5-(trifluoromethyl)-1,2,4-oxadiazol-3-yl]phenyl]methanone] |  | ≥ 80 | ≥ 80 |  |  |
|  | CC(C)CC(=O)c1ccc(-c2noc(C(F)(F)F)n2)cc1 [Compound 1.10, 3-methyl-1-[4-[5-(trifluoromethyl)-1,2,4-oxadiazol-3-yl]phenyl]butan-1-one] | ≥ 80 | ≥ 80 |  |  |  |
|  | C/C=C/CC(=O)c1ccc(-c2noc(C(F)(F)F)n2)cc1 [Compound 1.11, 1-[4-[5-(trifluoromethyl)-1,2,4-oxadiazol-3-yl]phenyl]pent-3-en-1-one] | ≥ 80 | ≥ 80 | ≥ 80 |  |  |
|  | Cc1ccsc1C(=O)c1ccc(-c2noc(C(F)(F)F)n2)cc1 [Compound 1.12, (3-methyl-2-thienyl)-[4-[5-(trifluoromethyl)-1,2,4-oxadiazol-3-yl]phenyl]methanone] | ≥ 80 | ≥ 80 | ≥ 80 |  |  |
| 76 to 81 | Cc1ccnc(C(=O)c2ccc(-c3noc(C(F)(F)F)n3)cc2)c1 [Compound 1.27, (4-methyl-2-pyridyl)-[4-[5-(trifluoromethyl)-1,2,4-oxadiazol-3-yl]phenyl]methanone] | ≥ 80 |  | ≥ 80 | ≥ 80 | ≥ 80 |
|  | CCCCC(O)c1ccc(-c2noc(C(F)(F)F)n2)cc1 (stereo not drawn) [Compound 2.3, 1-[4-[5-(trifluoromethyl)-1,2,4-oxadiazol-3-yl]phenyl]pentan-1-ol] |  | ≥ 80 |  |  |  |
| 67 to 70 | COc1ccc(C(O)c2ccc(-c3noc(C(F)(F)F)n3)cc2)cc1 (stereo not drawn) [Compound 2.4, (4-methoxyphenyl)-[4-[5-(trifluoromethyl)-1,2,4-oxadiazol-3-yl]phenyl]methanol] | ≥ 80 | ≥ 80 |  |  |  |
| 90 to 93 | OC(c1ccc(OC(F)(F)F)cc1)c1ccc(-c2noc(C(F)(F)F)n2)cc1 (stereo not drawn) [Compound 2.5, [4-(trifluoromethoxy)phenyl]-[4-[5-(trifluoromethyl)-1,2,4-oxadiazol-3-yl]phenyl]methanol] |  | ≥ 80 | ≥ 80 |  |  |
| 69 to 73 | OC(c1ccc(-c2noc(C(F)(F)F)n2)cc1)C1CC1 (stereo not drawn) [Compound 2.7, cyclopropyl-[4-[5-(trifluoromethyl)-1,2,4-oxadiazol-3-yl]phenyl]methanol] |  | ≥ 80 | ≥ 80 | ≥ 80 |  |
|  | C=C(C)C(O)c1ccc(-c2noc(C(F)(F)F)n2)cc1 (stereo not drawn) [Compound 2.8, 2-methyl-1-[4-[5-(trifluoromethyl)-1,2,4-oxadiazol-3-yl]phenyl]prop-2-en-1-ol] | ≥ 80 | ≥ 80 | ≥ 80 |  |  |
|  | C/C=C/CC(O)c1ccc(-c2noc(C(F)(F)F)n2)cc1 (stereo not drawn) [Compound 2.9, 1-[4-[5-(trifluoromethyl)-1,2,4-oxadiazol-3-yl]phenyl]pent-3-en-1-ol] |  | ≥ 80 | ≥ 80 |  |  |
| 68 to 73 | Cc1ccsc1C(O)c1ccc(-c2noc(C(F)(F)F)n2)cc1 (stereo not drawn) [Compound 2.10, (3-methyl-2-thienyl)-[4-[5-(trifluoromethyl)-1,2,4-oxadiazol-3-yl]phenyl]methanol] | ≥ 80 | ≥ 80 | ≥ 80 |  |  |
| 84 to 90 | Cc1cc(C(O)c2ccc(-c3noc(C(F)(F)F)n3)cc2)on1 (stereo not drawn) [Compound 2.14, (3-methylisoxazol-5-yl)-[4-[5-(trifluoromethyl)-1,2,4-oxadiazol-3-yl]phenyl]methanol] | ≥ 80 |  | ≥ 80 | ≥ 80 | ≥ 80 |
